One block for each compound: values may come before it.
Experiments:
NBD1 = target: T1, NBD1 (Homo sapiens, UniProt P13569); assay: Aggregation analysis using differential static light scattering (DSLS), thermal stability of NBD1 (ΔTagg); type: binding; details: ΔTagg versus DMSO control, NBD1 0.2 mg/ml
T1 construct: Purified recombinant NBD1 was produced using previously described methods; made in house
Outline: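 Thermal aggregation of purified NBD1 was followed by static light scattering during a 1° C./min ramp to 70° C. Protein was at 0.2 mg/ml with 2 mM ATP at pH7.6. Each compound's Tagg was referenced to DMSO controls.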

CFTR = target: T2, CFTR (Homo sapiens, UniProt P13569, DEL508-508); assay: TECC24 AUC fold over DMSO @10 μM, CFTR-mediated transepithelial chloride transport in CF-HBE cells; type: cell-based; details: test agent AUC divided by DMSO vehicle AUC, primary CF-HBE cells, ΔF508 homozygous donor, 48 hours incubation
T2 construct: Primary human bronchial epithelial cells from a ΔF508 homozygous CF donor; host or cells: primary human bronchial epithelial cells (CF-HBE), ΔF508 homozygous donor
T2 sequence (P13569 with tags, fused parts or gaps DEL508-508): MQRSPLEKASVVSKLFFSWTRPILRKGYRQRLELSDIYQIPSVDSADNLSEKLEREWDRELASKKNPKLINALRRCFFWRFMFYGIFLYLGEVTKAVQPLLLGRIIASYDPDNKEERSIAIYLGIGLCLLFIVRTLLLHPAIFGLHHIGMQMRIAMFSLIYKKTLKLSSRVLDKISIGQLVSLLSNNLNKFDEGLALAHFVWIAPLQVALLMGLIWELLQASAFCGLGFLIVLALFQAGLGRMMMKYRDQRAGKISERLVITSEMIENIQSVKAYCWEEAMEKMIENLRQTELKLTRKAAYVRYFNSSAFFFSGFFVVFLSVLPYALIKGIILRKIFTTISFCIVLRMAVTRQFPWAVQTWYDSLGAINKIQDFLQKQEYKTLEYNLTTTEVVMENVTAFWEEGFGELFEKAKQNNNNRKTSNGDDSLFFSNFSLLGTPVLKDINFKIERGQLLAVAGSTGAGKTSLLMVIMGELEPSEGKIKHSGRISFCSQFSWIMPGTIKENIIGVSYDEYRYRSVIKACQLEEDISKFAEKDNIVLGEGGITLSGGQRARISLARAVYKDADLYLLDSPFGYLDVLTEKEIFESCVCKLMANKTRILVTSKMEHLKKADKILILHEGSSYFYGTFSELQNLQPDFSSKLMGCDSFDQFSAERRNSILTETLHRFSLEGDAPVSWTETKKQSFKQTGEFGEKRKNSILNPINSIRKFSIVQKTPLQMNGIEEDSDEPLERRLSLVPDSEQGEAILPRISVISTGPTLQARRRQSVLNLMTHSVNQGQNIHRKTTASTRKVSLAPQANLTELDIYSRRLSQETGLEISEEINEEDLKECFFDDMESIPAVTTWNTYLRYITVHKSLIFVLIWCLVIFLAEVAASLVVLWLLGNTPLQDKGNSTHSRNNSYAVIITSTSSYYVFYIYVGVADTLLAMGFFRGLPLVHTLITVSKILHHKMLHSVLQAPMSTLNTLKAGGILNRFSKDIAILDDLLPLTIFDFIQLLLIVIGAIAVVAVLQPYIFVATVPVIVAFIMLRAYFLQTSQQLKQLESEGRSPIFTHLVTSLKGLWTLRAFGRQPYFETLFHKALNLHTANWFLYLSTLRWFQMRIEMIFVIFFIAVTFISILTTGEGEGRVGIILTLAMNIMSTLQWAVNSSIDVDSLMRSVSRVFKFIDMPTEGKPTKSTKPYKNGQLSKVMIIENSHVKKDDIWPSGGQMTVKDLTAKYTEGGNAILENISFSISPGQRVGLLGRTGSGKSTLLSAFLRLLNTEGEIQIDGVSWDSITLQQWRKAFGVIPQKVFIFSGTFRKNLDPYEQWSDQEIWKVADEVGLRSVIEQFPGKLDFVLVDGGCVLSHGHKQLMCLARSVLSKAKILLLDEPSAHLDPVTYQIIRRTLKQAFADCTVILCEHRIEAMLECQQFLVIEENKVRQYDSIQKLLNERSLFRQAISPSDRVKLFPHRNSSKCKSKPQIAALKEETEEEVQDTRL
Outline: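 Primary ΔF508-homozygous CF bronchial epithelial cells on inserts were incubated 48 h at 36.5 °C with compound in IL-13-containing medium. VT and TEER were then recorded in current-clamp mode (pH 7.4 HEPES bath) with benzamil 10 μM, forskolin 10 μM, then CFTR inhibitor-172 20 μM. The IEQ AUC between forskolin and inhibitor was divided by vehicle AUC.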

T1 sequence (P13569 423-646 limits assumed): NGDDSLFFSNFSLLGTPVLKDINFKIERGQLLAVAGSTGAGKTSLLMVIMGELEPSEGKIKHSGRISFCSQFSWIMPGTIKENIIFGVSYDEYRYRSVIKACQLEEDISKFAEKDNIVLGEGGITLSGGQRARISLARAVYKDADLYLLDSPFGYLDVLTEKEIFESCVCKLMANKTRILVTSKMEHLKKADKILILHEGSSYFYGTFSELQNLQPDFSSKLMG

Structure (SMILES): Cn1nc2nc1-c1cc(ccc1F)Oc1c(F)cc3[nH]ccc3c1CCS(=O)(=O)CC(C)(C)CCCC2(C)c1cccc(CC2CC(=O)N(O)C2=O)c1 (single isomer, unassigned) [Compound 195A, 3-[[3-(22,28-difluoro-3,6,10,10-tetramethyl-12,12-dioxo-24-oxa-12λ6-thia-3,4,19,30-tetrazapentacyclo[23.3.1.12,5.015,23.016,20]triaconta-1(29),2(30),4,15,17,20,22,25,27-nonaen-6-yl)phenyl]methyl]-1-hydroxy-pyrrolidine-2,5-dione]
DSLS 3D (100 μM ΔT) (NBD1): C (a value greater than 10 °C and less than or equal to 25 °C is marked “C”) | TECC (AUC, 10 μM) (CFTR): C (a value between 20 and 80 is marked “C”)

Structure (SMILES): Cn1nc2nc1-c1cc(ccc1F)Oc1c(F)cc3[nH]ccc3c1CCS(=O)(=O)CC(C)(C)CCCC2(C)c1cccc(CCO)c1 (single isomer, unassigned) [Compound 4B, 2-[3-(22,28-Difluoro-3,6,10,10-tetramethyl-12,12-dioxo-24-oxa-12λ^6-thia-3,4,19,30-tetrazapentacyclo[23.3.1.1^2,5.0^15,23.0^16,20]triaconta-1(29),2(30),4,15,17,20,22,25,27-nonaen-6-yl)phenyl]ethanol]
DSLS 3D (100 μM ΔT) (NBD1): A (an ΔTagg value less than or equal to 5 °C is marked “A”) | TECC (AUC, 10 μM) (CFTR): A (a TECC value less than 12 is marked “A”)

Structure (SMILES): CC1(C)COCCC(c2cccc(CCC(=O)O)c2)n2ccc(n2)-c2cc(ccc2F)Oc2c(F)cc3[nH]ccc3c2CS(=O)(=O)C1 (stereo not shown) [Compound 59, 3-[3-(22,28-Difluoro-11,11-dimethyl-13,13-dioxo-9,24-dioxa-13λ6-thia-5,19,30-triazapentacyclo[23.3.1.12,5.015,23.016,20]triaconta-1(29),2(30),3,15,17,20,22,25,27-nonaen-6-yl)phenyl]propanoic Acid]
DSLS 3D (100 μM ΔT) (NBD1): C (a value greater than 10 °C and less than or equal to 25 °C is marked “C”) | TECC (AUC, 10 μM) (CFTR): C (a value between 20 and 80 is marked “C”)

Structure (SMILES): CC(Cc1cccc(C2(CNCC(F)(F)F)CCCC(C)(C)CS(=O)(=O)CCc3c(c(F)cc4[nH]ccc34)Oc3ccc(F)c(c3)-c3nc2nn3C)c1)C(=O)O (single isomer, unassigned) [Compound 133A, 3-[3-[22,28-difluoro-3,10,10-trimethyl-12,12-dioxo-6-[(2,2,2-trifluoroethylamino)methyl]-24-oxa-12λ6-thia-3,4,19,30-tetrazapentacyclo[23.3.1.12,5.015,23.016,20]triaconta-1(29),2(30),4,15,17,20,22,25,27-nonaen-6-yl]phenyl]-2-methyl-propanoic Acid]
DSLS 3D (100 μM ΔT) (NBD1): C (a value greater than 10 °C and less than or equal to 25 °C is marked “C”) | TECC (AUC, 10 μM) (CFTR): C (a value between 20 and 80 is marked “C”)

Structure (SMILES): C[C@@H](Cc1cccc([C@@]2(C)CCCC(C)(C)CS(=O)(=O)CCc3c(c(F)cc4[nH]ccc34)Sc3ccc(F)c(c3)-c3nc2nn3C)c1)C(=O)O [Compound 242, (2S)-3-[3-[(6R)-22,28-difluoro-3,6,10,10-tetramethyl-12,12-dioxo-12λ6,24-dithia-3,4,19,30-tetrazapentacyclo[23.3.1.12,5.015,23.016,20]triaconta-1(29),2(30),4,15,17,20,22,25,27-nonaen-6-yl]phenyl]-2-methyl-propanoic Acid]
DSLS 3D (100 μM ΔT) (NBD1): C (a value greater than 10 °C and less than or equal to 25 °C is marked “C”) | TECC (AUC, 10 μM) (CFTR): C (a value between 20 and 80 is marked “C”)

Structure (SMILES): [2H]C([2H])([2H])C1(c2cccc(CC(C)C(=O)O)c2)COCC(C)(C)CS(=O)(=O)CCc2c(c(F)c(F)c3[nH]ccc23)Oc2ccc(F)c(c2)-c2nc1nn2C (single isomer, unassigned) [Compound 118A, 2-methyl-3-[3-[21,22,28-trifluoro-3,10,10-trimethyl-12,12-dioxo-6-(trideuteriomethyl)-8,24-dioxa-12λ6-thia-3,4,19,30-tetrazapentacyclo[23.3.1.12,5.015,23.016,20]triaconta-1(29),2(30),4,15,17,20,22,25,27-nonaen-6-yl]phenyl]propanoic acid]
DSLS 3D (100 μM ΔT) (NBD1): C (a value greater than 10 °C and less than or equal to 25 °C is marked “C”) | TECC (AUC, 10 μM) (CFTR): A (a TECC value less than 12 is marked “A”)

Structure (SMILES): C[C@H](Cc1cccc([C@@]2(C)CCCC(C)(C)CS(=O)(=O)CCc3c(c(F)cc4[nH]ccc34)Oc3cncc(c3)-c3nc2nn3C)c1)C(=O)O [Compound 202, (2R)-3-[3-[(6R)-22-fluoro-3,6,10,10-tetramethyl-12,12-dioxo-24-oxa-12λ6-thia-3,4,19,27,30-pentazapentacyclo[23.3.1.12,5.015,23.016,20]triaconta-1(29),2(30),4,15,17,20,22,25,27-nonaen-6-yl]phenyl]-2-methyl-propanoic Acid]
DSLS 3D (100 μM ΔT) (NBD1): C (a value greater than 10 °C and less than or equal to 25 °C is marked “C”) | TECC (AUC, 10 μM) (CFTR): C (a value between 20 and 80 is marked “C”)

Structure (SMILES): C/C(=C\c1cc(F)cc(C2(C)CCCC(C)(C)CS(=O)(=O)CCc3c(c(F)c(F)c4[nH]ccc34)Oc3ccc(F)c(c3)-c3nc2nn3C)c1)C(=O)O (single isomer, unassigned) [Compound 17B, (E)-3-(3-fluoro-5-((Z)-26,46,47-trifluoro-11,9,9,13-tetramethyl-7,7-dioxido-1I1H,41H-3-oxa-7-thia-4(5,4)-indola-1(5,3)-triazola-2(1,3)-benzenacyclotridecaphane-13-yl)phenyl)-2-methylacrylic acid]
DSLS 3D (100 μM ΔT) (NBD1): C (a value greater than 10 °C and less than or equal to 25 °C is marked “C”) | TECC (AUC, 10 μM) (CFTR): A (a TECC value less than 12 is marked “A”)

TECC (AUC, 10 μM) (CFTR): B (a value between 12-20 is marked “B”)
Structure (SMILES): CCOC(=O)C(Cc1cccc(C2(C)CCCC(C)(C)CS(=O)(=O)CCc3c(c(F)cc4[nH]ccc34)Oc3ccc(F)c(c3)-c3nc2nn3C)c1)C(F)F (stereo not shown) [Compound 131, Ethyl 2-[[3-(22,28-difluoro-3,6,10,10-tetramethyl-12,12-dioxo-24-oxa-12λ6-thia-3,4,19,30-tetrazapentacyclo[23.3.1.12,5.015,23.016,20]triaconta-1(29),2(30),4,15,17,20,22,25,27-nonaen-6-yl)phenyl]methyl]-3,3-difluoro-propanoate]
DSLS 3D (100 μM ΔT) (NBD1): A (an ΔTagg value less than or equal to 5 °C is marked “A”)

Structure (SMILES): C[C@@H](Cc1cccc([C@@]2(C)CCCC(C)(C)CS(=O)(=O)CCc3c(c(F)cc4[nH]ccc34)[S+]([O-])c3ccc(F)c(c3)-c3nc2nn3C)c1)C(=O)O (single isomer, unassigned) [Compound 204]
DSLS 3D (100 μM ΔT) (NBD1): C (a value greater than 10 °C and less than or equal to 25 °C is marked “C”) | TECC (AUC, 10 μM) (CFTR): C (a value between 20 and 80 is marked “C”)

Structure (SMILES): CC(Cc1cccc(C2(CF)CCCC(C)(C)CS(=O)(=O)CCc3c(c(F)cc4[nH]ccc34)Oc3ccc(F)c(c3)-c3nc2nn3C)c1)C(=O)O (single isomer, unassigned) [Compound 108B, 3-[3-[22,28-difluoro-6-(fluoromethyl)-3,10,10-trimethyl-12,12-dioxo-24-oxa-12λ6-thia-3,4,19,30-tetrazapentacyclo[23.3.1.12,5.015,23.016,20]triaconta-1(29),2(30),4,15,17,20,22,25,27-nonaen-6-yl]phenyl]-2-methyl-propanoic acid]
DSLS 3D (100 μM ΔT) (NBD1): A (an ΔTagg value less than or equal to 5 °C is marked “A”) | TECC (AUC, 10 μM) (CFTR): C (a value between 20 and 80 is marked “C”)

Structure (SMILES): Cn1nc2nc1-c1cc(ccc1F)Oc1c(F)cc3[nH]ccc3c1CCS(=O)(=O)CC(C)(C)CCCC2(C)c1cccc(CC(O)CO)c1 (single isomer, unassigned) [Compound 97B, 3-[3-(22,28-difluoro-3,6,10,10-tetramethyl-12,12-dioxo-24-oxa-12λ6-thia-3,4,19,30-tetrazapentacyclo[23.3.1.12,5.015,23.016,20]triaconta-1(29),2(30),4,15,17,20,22,25,27-nonaen-6-yl)phenyl]propane-1,2-diol]
DSLS 3D (100 μM ΔT) (NBD1): A (an ΔTagg value less than or equal to 5 °C is marked “A”) | TECC (AUC, 10 μM) (CFTR): A (a TECC value less than 12 is marked “A”)

Structure (SMILES): [2H]C([2H])([2H])n1nc2nc1-c1cc(ccc1F)Oc1c(F)cc3[nH]ccc3c1CCS(=O)(=O)CC(C)(C)CCCC2(C)c1cccc(OCC(=O)O)c1 (single isomer, unassigned) [Compound 1B, 2-[3-[22,28-Difluoro-6,10,10-trimethyl-12,12-dioxo-3-(trideuteriomethyl)-24-oxa-12λ^6-thia-3,4,19,30-tetrazapentacyclo[23.3.1.1^2,5.0^15,23.0^16,20]triaconta-1(29),2(30),4,15,17,20,22,25,27-nonaen-6-yl]phenoxy]acetic Acid]
DSLS 3D (100 μM ΔT) (NBD1): A (an ΔTagg value less than or equal to 5 °C is marked “A”) | TECC (AUC, 10 μM) (CFTR): A (a TECC value less than 12 is marked “A”)

Structure (SMILES): [2H]C([2H])([2H])C1(c2cccc(/C=C/C(=O)O)c2)CCCC(C)(C)CS(=O)(=O)CCc2c(c(F)cc3[nH]ccc23)Oc2ccc(F)c(c2)-c2nc1nn2C (single isomer, unassigned) [Compound 15A, (E)-3-[3-[22,28-difluoro-3,10,10-trimethyl-12,12-dioxo-6-(trideuteriomethyl)-24-oxa-12lambda6-thia-3,4,19,30-tetrazapentacyclo[23.3.1.12,5.015,23.016,20]triaconta-1(29),2(30),4,15,17,20,22,25,27-nonaen-6-yl]phenyl]prop-2-enoic Acid]
DSLS 3D (100 μM ΔT) (NBD1): C (a value greater than 10 °C and less than or equal to 25 °C is marked “C”) | TECC (AUC, 10 μM) (CFTR): A (a TECC value less than 12 is marked “A”)

From US12649750B2, “Macrocyclic compounds, compositions, and methods of using thereof” (Sionna Therapeutics Inc., priority 2022, dated 2026)
